Results taken from publication PMC11062922 (Nature Chemical Biology, 2023).

Tests used:
CAMKK2 = target: T1, CAMKK2 (Homo sapiens, UniProt Q96RR4); test: Kinobeads competition binding: CAMKK2; settings: target CAMKK2
T1 construct: endogenous in cells
Excerpt: Supplement 41589_2023_1459_MOESM4_ESM.xlsx, sheet "CATDS matrix" | column: CAMKK2

NAT10 = test: Kinobeads competition binding: NAT10; design: species or system human; settings: target NAT10
GRK6 = target: T2, GRK6 (Homo sapiens, UniProt P43250); test: Kinobeads two-dose competition binding: GRK6; settings: target GRK6
T2 construct: endogenous in cells

EPHB4 = target: T3, EPHB4 (Homo sapiens, UniProt P54760); test: Kinobeads competition binding: EPHB4; settings: target EPHB4
T3 construct: endogenous in cells
T3 sequence (P54760 16-987): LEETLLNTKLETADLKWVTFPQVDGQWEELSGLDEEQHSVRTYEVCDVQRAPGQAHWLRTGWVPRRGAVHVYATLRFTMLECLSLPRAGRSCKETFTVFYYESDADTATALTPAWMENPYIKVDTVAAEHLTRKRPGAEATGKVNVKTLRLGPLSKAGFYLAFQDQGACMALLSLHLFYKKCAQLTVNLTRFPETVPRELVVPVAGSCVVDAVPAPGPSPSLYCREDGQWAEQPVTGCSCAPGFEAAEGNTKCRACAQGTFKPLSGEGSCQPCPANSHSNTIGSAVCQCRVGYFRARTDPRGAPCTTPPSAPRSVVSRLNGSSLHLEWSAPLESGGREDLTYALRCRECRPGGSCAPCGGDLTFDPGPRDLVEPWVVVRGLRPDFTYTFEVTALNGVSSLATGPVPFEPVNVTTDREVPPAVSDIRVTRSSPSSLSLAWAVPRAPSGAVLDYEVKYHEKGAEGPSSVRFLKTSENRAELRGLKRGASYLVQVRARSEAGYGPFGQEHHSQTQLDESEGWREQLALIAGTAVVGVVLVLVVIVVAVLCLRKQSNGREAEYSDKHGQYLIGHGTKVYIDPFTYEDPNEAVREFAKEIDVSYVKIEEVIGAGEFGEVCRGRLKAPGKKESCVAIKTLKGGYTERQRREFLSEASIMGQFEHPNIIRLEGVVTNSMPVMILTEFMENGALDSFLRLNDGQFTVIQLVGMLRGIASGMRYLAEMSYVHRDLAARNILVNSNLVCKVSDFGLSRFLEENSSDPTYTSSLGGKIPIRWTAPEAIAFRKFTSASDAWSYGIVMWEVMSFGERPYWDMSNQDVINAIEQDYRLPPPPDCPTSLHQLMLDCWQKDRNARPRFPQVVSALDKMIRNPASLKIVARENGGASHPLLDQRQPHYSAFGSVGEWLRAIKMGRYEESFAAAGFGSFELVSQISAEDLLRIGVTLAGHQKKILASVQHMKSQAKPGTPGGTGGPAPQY

HSP90AA1 = test: Kinobeads competition binding: HSP90AA1; design: species or system human; settings: target HSP90AA1;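 further: share of total target engagement due to this protein at one drug concentration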
FER = target: T4, FER (Homo sapiens, UniProt P16591); test: Kinobeads competition binding: FER; settings: target FER
T4 construct: endogenous in cells
Excerpt: Supplement 41589_2023_1459_MOESM4_ESM.xlsx, sheet "CATDS matrix" | column: FER

CDK5 = target: T5, CDK5 (Homo sapiens, UniProt Q00535); test: Kinobeads competition binding: CDK5; settings: target CDK5
T5 construct: endogenous in cells

PKN1 = target: T6, PKN1 (Homo sapiens, UniProt Q16512); test: Kinobeads competition binding: PKN1; settings: target PKN1;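 further: share of total target engagement due to this protein at one drug concentration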
T6 construct: a mixture of lysates from five cancer cell lines; endogenous in cells
Excerpt: Supplement 41589_2023_1459_MOESM4_ESM.xlsx, sheet "CATDS matrix" | column: PKN1

PIK3CB = test: Kinobeads competition binding: PIK3CB; design: species or system human; settings: target PIK3CB
ADRBK1 = test: Kinobeads competition binding: ADRBK1; design: species or system human; settings: target ADRBK1
ACVR1B = target: T7, ACVR1B (Homo sapiens, UniProt P36896); test: Kinobeads competition binding: ACVR1B; settings: target ACVR1B
T7 construct: endogenous in cells
T7 sequence (P36896 24-505): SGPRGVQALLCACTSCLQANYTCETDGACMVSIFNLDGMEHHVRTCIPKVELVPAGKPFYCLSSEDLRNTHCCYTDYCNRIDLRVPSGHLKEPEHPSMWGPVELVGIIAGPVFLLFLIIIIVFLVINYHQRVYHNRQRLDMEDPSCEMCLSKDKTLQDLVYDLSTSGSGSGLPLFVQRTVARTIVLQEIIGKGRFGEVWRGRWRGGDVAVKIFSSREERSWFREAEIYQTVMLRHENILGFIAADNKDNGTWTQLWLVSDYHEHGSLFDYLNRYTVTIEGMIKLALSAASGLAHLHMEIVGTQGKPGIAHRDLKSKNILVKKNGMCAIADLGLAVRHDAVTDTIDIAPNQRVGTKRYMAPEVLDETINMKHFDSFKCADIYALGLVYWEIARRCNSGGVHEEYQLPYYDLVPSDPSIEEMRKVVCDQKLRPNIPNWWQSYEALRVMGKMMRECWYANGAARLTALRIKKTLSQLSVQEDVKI

MAP3K2 = test: Kinobeads competition binding: MAP3K2; design: species or system human; settings: target MAP3K2
MARK4 = test: Kinobeads competition binding: MARK4; design: species or system human; settings: target MARK4
PDGFRB = target: T8, PDGFRB (Homo sapiens, UniProt P09619); test: Kinobeads competition binding: PDGFRB; settings: target PDGFRB;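 further: share of total target engagement due to this protein at one drug concentration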
T8 construct: a mixture of lysates from five cancer cell lines; endogenous in cells
Excerpt: Supplement 41589_2023_1459_MOESM4_ESM.xlsx, sheet "CATDS matrix" | column: PDGFRB

PI4KA = test: Kinobeads competition binding: PI4KA; design: species or system human; settings: target PI4KA
PI4KB = test: Kinobeads competition binding: PI4KB; design: species or system human; settings: target PI4KB;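 further: selectivity score: engagement of this protein divided by summed engagement of all targets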
FN3KRP = test: Kinobeads competition binding: FN3KRP; design: species or system human; settings: target FN3KRP;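 further: share of total target engagement due to this protein at one drug concentration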
CDC42BPB = test: Kinobeads competition binding: CDC42BPB; design: species or system human; settings: target CDC42BPB

T2 sequence (P43250 whole entry): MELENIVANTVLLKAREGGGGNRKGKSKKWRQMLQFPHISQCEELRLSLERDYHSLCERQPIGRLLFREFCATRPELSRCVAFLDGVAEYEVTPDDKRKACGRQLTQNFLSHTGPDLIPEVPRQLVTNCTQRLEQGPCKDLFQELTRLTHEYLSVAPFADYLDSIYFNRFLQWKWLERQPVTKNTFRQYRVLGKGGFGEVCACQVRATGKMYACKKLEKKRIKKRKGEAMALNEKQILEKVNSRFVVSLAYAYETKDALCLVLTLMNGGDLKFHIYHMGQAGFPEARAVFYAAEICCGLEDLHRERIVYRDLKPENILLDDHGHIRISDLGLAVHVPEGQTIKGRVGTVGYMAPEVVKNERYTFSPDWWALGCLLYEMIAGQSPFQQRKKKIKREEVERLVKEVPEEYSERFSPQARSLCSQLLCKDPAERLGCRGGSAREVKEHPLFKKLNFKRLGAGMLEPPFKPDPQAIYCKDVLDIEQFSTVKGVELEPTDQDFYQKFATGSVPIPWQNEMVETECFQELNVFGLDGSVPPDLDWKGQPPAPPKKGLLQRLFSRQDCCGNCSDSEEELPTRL
T1 sequence (Q96RR4 whole entry): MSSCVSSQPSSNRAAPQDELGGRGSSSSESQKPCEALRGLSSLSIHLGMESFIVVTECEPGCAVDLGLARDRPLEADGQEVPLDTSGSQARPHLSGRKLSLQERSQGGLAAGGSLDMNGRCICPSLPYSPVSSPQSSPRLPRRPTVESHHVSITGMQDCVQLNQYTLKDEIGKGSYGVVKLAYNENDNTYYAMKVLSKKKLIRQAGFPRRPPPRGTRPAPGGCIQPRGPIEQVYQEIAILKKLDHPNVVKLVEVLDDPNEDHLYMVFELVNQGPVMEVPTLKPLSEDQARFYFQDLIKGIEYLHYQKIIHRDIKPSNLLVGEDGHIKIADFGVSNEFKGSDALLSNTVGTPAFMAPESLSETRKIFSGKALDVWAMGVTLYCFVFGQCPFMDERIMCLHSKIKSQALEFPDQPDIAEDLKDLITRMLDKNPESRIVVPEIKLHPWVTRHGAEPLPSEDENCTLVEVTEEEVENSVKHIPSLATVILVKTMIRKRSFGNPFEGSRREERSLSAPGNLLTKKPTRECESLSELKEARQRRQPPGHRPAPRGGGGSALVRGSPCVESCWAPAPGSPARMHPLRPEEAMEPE
T6 sequence (Q16512 whole entry): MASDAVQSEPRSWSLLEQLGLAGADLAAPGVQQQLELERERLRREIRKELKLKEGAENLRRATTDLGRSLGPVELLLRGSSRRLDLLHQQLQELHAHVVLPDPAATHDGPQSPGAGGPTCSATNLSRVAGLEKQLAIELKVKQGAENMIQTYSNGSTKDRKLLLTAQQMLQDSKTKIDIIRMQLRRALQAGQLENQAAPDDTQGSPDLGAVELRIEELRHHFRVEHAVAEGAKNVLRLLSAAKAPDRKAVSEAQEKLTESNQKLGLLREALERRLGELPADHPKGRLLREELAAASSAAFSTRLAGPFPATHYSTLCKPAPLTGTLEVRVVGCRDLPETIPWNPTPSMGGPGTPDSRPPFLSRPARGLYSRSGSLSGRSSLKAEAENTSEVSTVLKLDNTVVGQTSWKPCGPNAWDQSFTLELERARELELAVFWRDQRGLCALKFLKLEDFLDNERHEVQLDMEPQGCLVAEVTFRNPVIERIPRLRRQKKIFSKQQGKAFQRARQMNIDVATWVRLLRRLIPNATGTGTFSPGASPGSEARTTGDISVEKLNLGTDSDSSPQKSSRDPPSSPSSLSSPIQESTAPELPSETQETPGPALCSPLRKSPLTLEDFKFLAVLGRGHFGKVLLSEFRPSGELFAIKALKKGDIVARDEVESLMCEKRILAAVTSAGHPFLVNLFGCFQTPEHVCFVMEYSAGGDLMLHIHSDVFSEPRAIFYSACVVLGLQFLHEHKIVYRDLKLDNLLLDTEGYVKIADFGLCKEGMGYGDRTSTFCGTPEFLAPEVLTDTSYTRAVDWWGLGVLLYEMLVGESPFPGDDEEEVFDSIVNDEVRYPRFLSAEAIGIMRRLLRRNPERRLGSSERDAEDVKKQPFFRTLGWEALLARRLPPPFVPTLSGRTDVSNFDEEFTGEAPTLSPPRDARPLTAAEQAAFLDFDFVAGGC
T4 sequence (P16591 whole entry): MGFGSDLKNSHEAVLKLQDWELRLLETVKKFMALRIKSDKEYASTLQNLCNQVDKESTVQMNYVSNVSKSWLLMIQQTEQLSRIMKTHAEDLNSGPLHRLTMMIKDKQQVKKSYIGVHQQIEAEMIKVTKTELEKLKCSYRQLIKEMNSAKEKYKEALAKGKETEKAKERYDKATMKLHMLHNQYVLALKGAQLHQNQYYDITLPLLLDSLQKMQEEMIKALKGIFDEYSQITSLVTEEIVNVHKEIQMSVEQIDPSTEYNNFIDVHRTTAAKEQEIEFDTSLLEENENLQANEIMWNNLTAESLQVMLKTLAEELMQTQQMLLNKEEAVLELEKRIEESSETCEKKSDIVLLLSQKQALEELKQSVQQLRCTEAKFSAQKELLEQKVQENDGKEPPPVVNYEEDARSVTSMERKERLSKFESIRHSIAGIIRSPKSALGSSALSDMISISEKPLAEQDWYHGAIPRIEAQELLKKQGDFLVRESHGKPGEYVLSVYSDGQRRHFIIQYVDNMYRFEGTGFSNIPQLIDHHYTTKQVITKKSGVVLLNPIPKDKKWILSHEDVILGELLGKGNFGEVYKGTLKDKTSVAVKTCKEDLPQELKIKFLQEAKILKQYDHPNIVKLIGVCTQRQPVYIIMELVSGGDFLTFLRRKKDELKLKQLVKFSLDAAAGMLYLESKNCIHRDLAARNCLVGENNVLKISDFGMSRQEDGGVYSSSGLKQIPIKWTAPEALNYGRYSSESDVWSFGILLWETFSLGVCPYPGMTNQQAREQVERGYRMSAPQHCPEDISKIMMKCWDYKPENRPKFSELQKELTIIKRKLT
T5 sequence (Q00535 whole entry): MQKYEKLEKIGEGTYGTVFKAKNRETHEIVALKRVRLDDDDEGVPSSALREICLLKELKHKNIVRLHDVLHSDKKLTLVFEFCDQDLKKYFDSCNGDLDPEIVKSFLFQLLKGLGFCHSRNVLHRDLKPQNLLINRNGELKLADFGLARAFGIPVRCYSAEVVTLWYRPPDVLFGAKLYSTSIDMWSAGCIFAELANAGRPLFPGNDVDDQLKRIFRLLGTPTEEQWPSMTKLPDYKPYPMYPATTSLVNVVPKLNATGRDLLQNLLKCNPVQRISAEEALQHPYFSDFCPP
T8 sequence (P09619 33-1106): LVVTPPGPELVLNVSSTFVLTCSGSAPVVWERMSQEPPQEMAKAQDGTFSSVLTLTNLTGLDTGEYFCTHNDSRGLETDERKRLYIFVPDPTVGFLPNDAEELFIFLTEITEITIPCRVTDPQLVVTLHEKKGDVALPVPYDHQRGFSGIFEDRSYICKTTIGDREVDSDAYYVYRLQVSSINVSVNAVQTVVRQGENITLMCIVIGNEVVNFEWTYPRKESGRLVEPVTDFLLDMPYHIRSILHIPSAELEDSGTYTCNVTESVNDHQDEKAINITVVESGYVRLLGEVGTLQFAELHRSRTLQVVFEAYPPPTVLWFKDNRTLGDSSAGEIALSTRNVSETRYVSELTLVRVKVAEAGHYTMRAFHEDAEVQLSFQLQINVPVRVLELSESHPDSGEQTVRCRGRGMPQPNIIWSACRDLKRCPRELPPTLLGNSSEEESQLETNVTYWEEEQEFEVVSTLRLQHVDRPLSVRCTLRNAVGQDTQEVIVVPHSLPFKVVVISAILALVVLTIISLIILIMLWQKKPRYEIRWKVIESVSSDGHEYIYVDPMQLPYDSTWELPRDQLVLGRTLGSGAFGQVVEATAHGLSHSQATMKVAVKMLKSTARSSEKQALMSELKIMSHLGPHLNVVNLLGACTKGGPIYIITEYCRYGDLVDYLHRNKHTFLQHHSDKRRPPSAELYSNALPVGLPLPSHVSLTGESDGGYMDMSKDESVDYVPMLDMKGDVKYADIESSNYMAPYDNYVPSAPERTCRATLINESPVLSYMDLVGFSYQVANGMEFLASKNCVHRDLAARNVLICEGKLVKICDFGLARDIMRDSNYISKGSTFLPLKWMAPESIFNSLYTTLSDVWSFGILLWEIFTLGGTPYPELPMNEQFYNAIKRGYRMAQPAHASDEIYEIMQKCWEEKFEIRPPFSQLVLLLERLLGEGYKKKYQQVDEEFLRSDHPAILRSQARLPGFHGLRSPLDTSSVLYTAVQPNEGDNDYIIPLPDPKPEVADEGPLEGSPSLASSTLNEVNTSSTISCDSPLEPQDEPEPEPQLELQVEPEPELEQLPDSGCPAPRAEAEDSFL

SMILES | CATDS (CAMKK2) | CATDS (NAT10) | CATDS (GRK6) | CATDS (EPHB4) | CATDS (HSP90AA1) | CATDS (FER) | CATDS (CDK5) | CATDS (PKN1) | CATDS (PIK3CB) | CATDS (ADRBK1) | CATDS (ACVR1B) | CATDS (MAP3K2) | CATDS (MARK4) | CATDS (PDGFRB) | CATDS (PI4KA) | CATDS (PI4KB) | CATDS (FN3KRP) | CATDS (CDC42BPB)
CCc1cc2c(cc1N1CCC(N3CCOCC3)CC1)C(C)(C)c1[nH]c3cc(C#N)ccc3c1C2=O [Alectinib] | 0 | 0 | 0 | 0 | 0 | 0 | 0 | 0 | 0 | 0 | 0 | 0 | 0 | 0 | 0 | 0 | 0 | 0
CN(C)C/C=C/C(=O)Nc1cc2c(Nc3ccc(F)c(Cl)c3)ncnc2cc1O[C@H]1CCOC1 [Afatinib] | 0 | 0 | 0 | – | 0 | 0 | – | 0 | – | – | – | – | – | 0 | 0 | – | 0 | –
Nc1ncnc2[nH]c(-c3ccccc3)nc12 [AH5015_KCGS] | 0 | 0 | 0 | 0.03489 | 0 | 0.03222 | 0 | 0 | 0 | 0 | 0 | 0 | 0 | 0 | 0 | 0 | 0 | 0
CCN1CCN(Cc2ccc(Nc3ncc(F)c(-c4cc(F)c5nc(C)n(C(C)C)c5c4)n3)nc2)CC1 [Abemaciclib] | 0 | 0 | 0 | 0 | 0 | 0 | 0 | 0 | 0 | 0 | 0 | 0 | 0 | 0 | 0 | 0 | 0 | 0
N#CC1(c2ccc(NC(=O)c3cccnc3NCc3ccncc3)cc2)CCCC1 [Apatinib] | 0 | 0 | 0 | 0 | 0 | 0 | 0 | 0 | 0 | 0 | 0 | 0 | 0 | 0 | 0 | 0 | 0 | 0
